Our source for the TGI values is PubChem BioAssay (NCI).

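Interpolation was linear, between the two tested concentrations surrounding the appropriate level; five concentrations were tested over 48 hours in 96-well plates. TGI: concentration producing complete growth inhibition.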 Some results are limits rather than exact numbers.

Test systems include DU-145 prostate; PC-3 prostate; XF 498 CNS; P388 leukemia; P388/ADR leukemia; SNB-78 CNS; DMS 273 small cell lung; DLD-1 colon; HOP-18 NSCLC; RPMI-8226 leukemia; 786-0 renal; LXFL 529 NSCLC.
What all share (assay): NCI tumour cell line growth inhibition, 48 h

As for `CC(=O)OC[C@H]1[C@@H]2C(CC[C@]13CO3)OC(=O)CC(C)[C@]2(C)CCc1ccoc1` (stereo not given in full), the TGI with DU-145 prostate and with PC-3 prostate was over 100 µM each time.
With `COc1ccc2c(c1)CCCc1cn[nH]c1-2`, the TGI in the experiment on XF 498 CNS, in the experiment with P388 leukemia, with P388/ADR leukemia, in the experiment with SNB-78 CNS, in the experiment with DMS 273 small cell lung and with DLD-1 colon was over 100 µM in each case. The same compound showed a TGI in the experiment on HOP-18 NSCLC of over 100 µM.
For `COc1ccc(-c2c(C#N)c(NC(=S)NC(=O)c3ccccc3)nc3c2CCCC3)cc1OC`, the TGI in the experiment on RPMI-8226 leukemia, in the experiment with DU-145 prostate and with PC-3 prostate was over 100 µM each time.
`O=[N+]([O-])c1ccccc1N=Nc1c(O)sc2ccccc12`: the TGI in the experiment with RPMI-8226 leukemia, in the experiment with DU-145 prostate and with PC-3 prostate was over 100 µM throughout.
As to `COC(=O)C1(c2ccc(N(C)C)cc2OC)CCCN(C(=O)Oc2ccccc2[N+](=O)[O-])CCc2c1[nH]c1ccccc21` (stereo not given), the TGI in the experiment with DU-145 prostate and in the experiment on PC-3 prostate was over 100 µM each time.
Turning to `Oc1ccc2ccccc2c1N=Nc1ccc(F)cc1`, the TGI in the experiment with RPMI-8226 leukemia, in the experiment on 786-0 renal, in the experiment with LXFL 529 NSCLC, with DMS 273 small cell lung and in the experiment with HOP-18 NSCLC was over 100 µM throughout.
In the case of `CC(C)CCN=c1cc2n(-c3ccc(Cl)cc3)c3ccccc3nc-2cc1Nc1ccc(Cl)cc1`, the TGI is 20.6 µM with XF 498 CNS; 11.7 µM in the experiment with P388 leukemia; 10.2 µM in the experiment with P388/ADR leukemia; over 100 µM with SNB-78 CNS; 5.74 µM in the experiment on RPMI-8226 leukemia; 56.4 µM with DMS 273 small cell lung. Besides, the TGI with DLD-1 colon is 68.4 µM; in the experiment with HOP-18 NSCLC it was 56.6 µM.
For `CC(C(=O)O)c1cnn(-c2ccccc2)c1-n1cccc1` (stereo not given), the TGI in the experiment with XF 498 CNS, in the experiment with P388 leukemia, in the experiment with P388/ADR leukemia, in the experiment on SNB-78 CNS, in the experiment on RPMI-8226 leukemia and with DMS 273 small cell lung was over 100 µM in each case. In addition, the TGI in the experiment with DLD-1 colon and in the experiment with HOP-18 NSCLC was over 100 µM each time.
`C=CCNc1ccc(C)cc1`: the TGI in the experiment with DU-145 prostate and in the experiment with PC-3 prostate was over 100 µM in each case.
